Reference: patent US20080027104A1, “Novel Crystalline Forms 2” (AstraZeneca AB, priority 2006, published 2008)

Assays:
Type in all cases: physicochemical
[1] = Thermogravimetric analysis of crystalline form; settings: range from 25° C. up to 205° C.
Description: (§1) The crystalline forms may be further characterised by the presence of one or more of the additional properties listed below: • (i) for Form I • (I) when characterised by thermogravimetric analysis, a weight loss of approx. 0.8% occurs in the range from 25° C. up to 205° C., and/or • (II) when characterised by differential scanning calorimetry, at a heating rate of 10° C. per minute in a closed cup with a pinhole under flowing nitrogen, a melting temperature (Tm) having an onset at about 194° C. and/or an associated endotherm of melting of about 96 J/g; and/or • (III) when stored at 80% RH (ambient) less than 0.2% moisture is adsorbed. • (i) for Form II • (I) when characterised by thermogravimetric analysis, a weight loss of approx. 0.2% occurs in the range from 25° C. up to 205° C., and/or • (II) when characterised by differential scanning calorimetry, at a heating rate of 10° C. per minute in a closed cup with a pinhole under flowing nitrogen, a melting temperature (Tm) having an onset at about 193° C. and/or an associated endotherm of melting of about 105 J/g.

[2] = Moisture adsorption on storage at 80% RH; settings: stored at 80% RH (ambient)
Description: as §1

[3] = Thermodynamic stability of crystal form; settings: crystallised from THF/ethanol

Row | Structure (SMILES) | weight loss by thermogravimetric analysis [1] | moisture adsorbed [2] | thermodynamic stability of crystal form [3]
1 | CCOC(=O)c1cc(C#N)c(N2CCC(C(=O)NS(=O)(=O)Cc3ccccc3)CC2)nc1C [Form I, 6-(4-{[(benzylsulfonyl)amino]carbonyl}piperidin-1-yl)-5-cyano-2-methylnicotinic acid ethyl ester] | approx. 0.8% | less than 0.2% | 
2 | CCOC(=O)c1cc(C#N)c(N2CCC(C(=O)NS(=O)(=O)Cc3ccccc3)CC2)nc1C [Form II, 6-(4-{[(benzylsulfonyl)amino]carbonyl}piperidin-1-yl)-5-cyano-2-methylnicotinic acid ethyl ester] | approx. 0.2% |  | thermodynamically stable form
